From article PMC10495984, “Structural basis of IRGB10 oligomerization by GTP hydrolysis” (Frontiers in Immunology, 2023)

Tests used:
IRGB10 = target: T1, IRGB10 (Mus musculus, UniProt U5NFV2); test: turbidity at […] nm, SEC and native PAGE of GTP-driven oligomerization; type: biochemical; details: nucleotide-free protein, MgCl2, 37 °C, pH 8.0; hydrolysis inferred from oligomerization
T1 construct: recombinant from E. coli BL21(DE3), Ni-NTA purified, C-terminal LEH from plasmid kept; modelled residues 16-406
T1 sequence (U5NFV2 1-406): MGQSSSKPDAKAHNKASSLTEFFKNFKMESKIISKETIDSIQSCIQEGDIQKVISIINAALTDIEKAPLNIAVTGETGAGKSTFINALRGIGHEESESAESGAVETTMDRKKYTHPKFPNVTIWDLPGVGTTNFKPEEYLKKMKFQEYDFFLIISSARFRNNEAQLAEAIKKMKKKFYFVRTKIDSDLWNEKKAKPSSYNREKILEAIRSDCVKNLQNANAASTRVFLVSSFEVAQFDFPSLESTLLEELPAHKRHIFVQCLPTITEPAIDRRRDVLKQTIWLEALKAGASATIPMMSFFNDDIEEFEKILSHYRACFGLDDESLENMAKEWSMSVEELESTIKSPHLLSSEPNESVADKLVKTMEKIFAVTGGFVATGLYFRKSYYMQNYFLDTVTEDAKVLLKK

[1] = target: the molecule itself; test: SEC-MALS; GDP-bound protein (endogenous E. coli GDP kept); Superdex 200 HR 10/30, 20 mM Tris-HCl pH 8.0, 150 mM NaCl

Molecule | turbidity at 350 nm, SEC and native PAGE of GTP-driven oligomerization (IRGB10) | stoichiometry N [1]
Nc1nc2c(ncn2[C@@H]2O[C@H](COP(=O)(O)OP(=O)(O)OP(=O)(O)O)[C@@H](O)[C@H]2O)c(=O)[nH]1 [GTP] | The results of these turbidity assays indicated that GTP hydrolysis caused the oligomerization of IRGB10. | 
Immunity-related GTPase B10 (IRGB10) (enzyme, mouse, IRGB10, immunity-related GTPase B10, member of the mouse IRG (p47 GTPase) family; the crystal model runs from residue 16 to residue 406 and is followed by LEH from the plasmid; nucleotide-free after a 1.5 M NaCl wash on the resin; GppNHp, GTP or GDP added afterwards; also called wildtype IRGB10; nucleotide-free IRGB10; source: E. coli BL21 (DE3), purified (Ni-NTA, SEC)) MGQSSSKPDAKAHNMASSLTEFFKNFKMESKIISKETIDSIQSCIQEGDIQKVISIINAALTDIEKAPLNIAVTGETGAGKSTFINALRGIGHEESESAESGAVETTKDRKKYTHPKFPNVTIWDLPGVGTTNFKPEEYLKKMKFQEYDFFLIISSARFRDNEAQLAEAIKKMKKKFYFVRTKIDSDLWNEKKAKPSSYNREKILEVIRSDCVKNLQNANAASTRVFLVSSFEVAQFDFPSLESTLLEELPAHKRHIFVQCLPTITEPAIDRRRDVLKQTIWLEALKAGASATIPMMSFFNDDIEEFEKILSHYRACFGLDDESLENMAKEWSMSVEELESTIKSPHLLSSEPNESVADKLVKTMEKIFAVTGGFVATGLYFRKSYYMQNYFLDTVTEDAKVLLKK |  | 2
